Species: Rattus norvegicus
Assay: Open TG-GATES - Regimen: Single
Assay type: toxicity, organism-based, Sprague-Dawley
Parameters: regimen Single, gender Male, age 6 weeks
Conditions: in vivo, po, 0 mg/kg, route gavage, dose level Control; for APTT / Bas / Eos / Fbg / Hb / Ht / Lym / MCH / MCHC / MCV / Mono / Neu / PT / Plat / RBC / Ret / WBC: tissue Blood; for KIDNEY_L / KIDNEY_R / KIDNEY_TOTAL: tissue Kidney; for LIVER: tissue Liver; for A/G / ALP / ALT / AST / BUN / CRE / Ca / Cl / DBIL / GLC / IP / K / LDH / Na / PL / RALB / TBIL / TC / TG / TP / gamma-GTP: tissue Plasma

Molecule `Clc1c(Cl)c(Cl)c(Cl)c(Cl)c1Cl` [PERCHLOROBENZENE] has a TERMINAL_BW (3 h) of 219.4 g, an APTT (3 h) of 19.3 s and a Bas (3 h) of 0.2%. It also gave an Eos (3 h) of 0.8%, a Fbg (3 h) of 218.8 mg/dL and a Hb (3 h) of 13.5 g/dL. The Ht (3 h) was 38.6%, the Lym (3 h) was 75.4% and the MCH (3 h) was 21.1 pg. For the same molecule, the MCHC (3 h) was 34.9%, the MCV (3 h) was 60.3 fL and the Mono (3 h) was 3.2%. For the same molecule, the Neu (3 h) was 18.6%, the PT (3 h) was 11.9 s and the Plat (3 h) was 122 x10_4/uL. It also gave an RBC (3 h) of 639.6 x10_4/ul, a Ret (3 h) of 7.1% and a WBC (3 h) of 76.5 x10_2/uL. It also gave a KIDNEY_L (3 h) of 1 g, a KIDNEY_R (3 h) of 1 g and a KIDNEY_TOTAL (3 h) of 2 g. The LIVER (3 h) was 9.9 g, the A/G (3 h) was 1.7 and the ALP (3 h) was 1008.2 IU/L. For the same molecule, the ALT (3 h) was 42.8 IU/L, the AST (3 h) was 78 IU/L and the BUN (3 h) was 11.4 mg/dL. It also gave a CRE (3 h) of 0.4 mg/dL, a Ca (3 h) of 10.9 mg/dL and a Cl (3 h) of 103.4 meq/L. It also gave a DBIL (3 h) of 0.07 mg/dL, a GLC (3 h) of 187.2 mg/dL and an IP (3 h) of 8.4 mg/dL. It also gave a K (3 h) of 4 meq/L, an LDH (3 h) of 216.2 IU/L and a Na (3 h) of 140.6 meq/L. The PL (3 h) was 156.8 mg/dL, the RALB (3 h) was 3.5 g/dL and the TBIL (3 h) was 0.1 mg/dL. For the same molecule, the TC (3 h) was 76.8 mg/dL, the TG (3 h) was 103.4 mg/dL and the TP (3 h) was 5.5 g/dL. The gamma-GTP (3 h) was 1 IU/L, the TERMINAL_BW (6 h) was 219.4 g and the APTT (6 h) was 19.5 s. It also gave a Bas (6 h) of 0.2%, an Eos (6 h) of 0.6% and a Fbg (6 h) of 230.4 mg/dL. For the same molecule, the Hb (6 h) was 13.5 g/dL, the Ht (6 h) was 38.4% and the Lym (6 h) was 79.6%. For the same molecule, the MCH (6 h) was 21.7 pg, the MCHC (6 h) was 35.3% and the MCV (6 h) was 61.5 fL. For the same molecule, the Mono (6 h) was 3.2%, the Neu (6 h) was 14.8% and the PT (6 h) was 11.7 s. It also gave a Plat (6 h) of 134.1 x10_4/uL, an RBC (6 h) of 624 x10_4/ul and a Ret (6 h) of 7.2%. It also gave a WBC (6 h) of 106.3 x10_2/uL, a KIDNEY_L (6 h) of 1 g and a KIDNEY_R (6 h) of 1 g. The KIDNEY_TOTAL (6 h) was 2 g, the LIVER (6 h) was 9.6 g and the A/G (6 h) was 1.5. The ALP (6 h) was 958.2 IU/L, the ALT (6 h) was 32 IU/L and the AST (6 h) was 70.6 IU/L. For the same molecule, the BUN (6 h) was 9.2 mg/dL, the CRE (6 h) was 0.4 mg/dL and the Ca (6 h) was 10.6 mg/dL. The Cl (6 h) was 102.6 meq/L, the DBIL (6 h) was 0.06 mg/dL and the GLC (6 h) was 192.8 mg/dL. The IP (6 h) was 9.4 mg/dL, the K (6 h) was 4.2 meq/L and the LDH (6 h) was 216.4 IU/L. The Na (6 h) was 140.2 meq/L, the PL (6 h) was 149.6 mg/dL and the RALB (6 h) was 3.3 g/dL. It also gave a TBIL (6 h) of 0.1 mg/dL, a TC (6 h) of 77.6 mg/dL and a TG (6 h) of 71.2 mg/dL. It also gave a TP (6 h) of 5.6 g/dL, a gamma-GTP (6 h) of 1.2 IU/L and a TERMINAL_BW (9 h) of 215.4 g. It also gave an APTT (9 h) of 21.3 s, a Bas (9 h) of 0.2% and an Eos (9 h) of 1%. The Fbg (9 h) was 226.6 mg/dL, the Hb (9 h) was 13.5 g/dL and the Ht (9 h) was 38.6%. The Lym (9 h) was 75%, the MCH (9 h) was 21.1 pg and the MCHC (9 h) was 35%. It also gave an MCV (9 h) of 60.2 fL, a Mono (9 h) of 2.6% and a Neu (9 h) of 19.8%. It also gave a PT (9 h) of 12.3 s, a Plat (9 h) of 128.3 x10_4/uL and an RBC (9 h) of 641.8 x10_4/ul. It also gave a Ret (9 h) of 7%, a WBC (9 h) of 90.9 x10_2/uL and a KIDNEY_L (9 h) of 1 g. The KIDNEY_R (9 h) was 0.9 g, the KIDNEY_TOTAL (9 h) was 1.9 g and the LIVER (9 h) was 8.7 g. It also gave an A/G (9 h) of 1.6, an ALP (9 h) of 849.2 IU/L and an ALT (9 h) of 28.4 IU/L. It also gave an AST (9 h) of 62.4 IU/L, a BUN (9 h) of 9.4 mg/dL and a CRE (9 h) of 0.3 mg/dL. The Ca (9 h) was 10.7 mg/dL, the Cl (9 h) was 103.6 meq/L and the DBIL (9 h) was 0.068 mg/dL. The GLC (9 h) was 198.8 mg/dL, the IP (9 h) was 10.6 mg/dL and the K (9 h) was 3.8 meq/L. The LDH (9 h) was 175.8 IU/L, the Na (9 h) was 142 meq/L and the PL (9 h) was 129.4 mg/dL. It also gave an RALB (9 h) of 3.3 g/dL, a TBIL (9 h) of 0.1 mg/dL and a TC (9 h) of 67.6 mg/dL. The TG (9 h) was 46.6 mg/dL, the TP (9 h) was 5.5 g/dL and the gamma-GTP (9 h) was 1 IU/L. It also gave a TERMINAL_BW (24 h) of 227.7 g, an APTT (24 h) of 18.7 s and a Bas (24 h) of 0.6%. The Eos (24 h) was 0.8%, the Fbg (24 h) was 216.6 mg/dL and the Hb (24 h) was 13.7 g/dL. For the same molecule, the Ht (24 h) was 39.5%, the Lym (24 h) was 80.8% and the MCH (24 h) was 21.1 pg. The MCHC (24 h) was 34.8%, the MCV (24 h) was 60.6 fL and the Mono (24 h) was 2.2%. It also gave a Neu (24 h) of 14.8%, a PT (24 h) of 11.9 s and a Plat (24 h) of 129.9 x10_4/uL. It also gave an RBC (24 h) of 651.8 x10_4/ul, a Ret (24 h) of 6.2% and a WBC (24 h) of 90.7 x10_2/uL. For the same molecule, the KIDNEY_L (24 h) was 1.1 g, the KIDNEY_R (24 h) was 1.1 g and the KIDNEY_TOTAL (24 h) was 2.1 g. It also gave an LIVER (24 h) of 10.3 g, an A/G (24 h) of 1.6 and an ALP (24 h) of 981.2 IU/L. The ALT (24 h) was 31.2 IU/L, the AST (24 h) was 70.6 IU/L and the BUN (24 h) was 13.6 mg/dL. For the same molecule, the CRE (24 h) was 0.4 mg/dL, the Ca (24 h) was 10.9 mg/dL and the Cl (24 h) was 103 meq/L. The DBIL (24 h) was 0.06 mg/dL, the GLC (24 h) was 192.6 mg/dL and the IP (24 h) was 7.5 mg/dL. For the same molecule, the K (24 h) was 4 meq/L, the LDH (24 h) was 203.2 IU/L and the Na (24 h) was 141.2 meq/L. The PL (24 h) was 131.4 mg/dL, the RALB (24 h) was 3.4 g/dL and the TBIL (24 h) was 0.1 mg/dL. The TC (24 h) was 70.2 mg/dL, the TG (24 h) was 68.2 mg/dL and the TP (24 h) was 5.5 g/dL. It also gave a gamma-GTP (24 h) of 1.2 IU/L.

From ChEMBL document CHEMBL3885861, “Open TG-GATES”
